Counter-ions that a name gives are not always drawn.
Experiments:
[1] = target: T1, Protein deacetylase HDAC6 (Homo sapiens, UniProt Q9UBN7)
T1 sequence (Q9UBN7 whole entry): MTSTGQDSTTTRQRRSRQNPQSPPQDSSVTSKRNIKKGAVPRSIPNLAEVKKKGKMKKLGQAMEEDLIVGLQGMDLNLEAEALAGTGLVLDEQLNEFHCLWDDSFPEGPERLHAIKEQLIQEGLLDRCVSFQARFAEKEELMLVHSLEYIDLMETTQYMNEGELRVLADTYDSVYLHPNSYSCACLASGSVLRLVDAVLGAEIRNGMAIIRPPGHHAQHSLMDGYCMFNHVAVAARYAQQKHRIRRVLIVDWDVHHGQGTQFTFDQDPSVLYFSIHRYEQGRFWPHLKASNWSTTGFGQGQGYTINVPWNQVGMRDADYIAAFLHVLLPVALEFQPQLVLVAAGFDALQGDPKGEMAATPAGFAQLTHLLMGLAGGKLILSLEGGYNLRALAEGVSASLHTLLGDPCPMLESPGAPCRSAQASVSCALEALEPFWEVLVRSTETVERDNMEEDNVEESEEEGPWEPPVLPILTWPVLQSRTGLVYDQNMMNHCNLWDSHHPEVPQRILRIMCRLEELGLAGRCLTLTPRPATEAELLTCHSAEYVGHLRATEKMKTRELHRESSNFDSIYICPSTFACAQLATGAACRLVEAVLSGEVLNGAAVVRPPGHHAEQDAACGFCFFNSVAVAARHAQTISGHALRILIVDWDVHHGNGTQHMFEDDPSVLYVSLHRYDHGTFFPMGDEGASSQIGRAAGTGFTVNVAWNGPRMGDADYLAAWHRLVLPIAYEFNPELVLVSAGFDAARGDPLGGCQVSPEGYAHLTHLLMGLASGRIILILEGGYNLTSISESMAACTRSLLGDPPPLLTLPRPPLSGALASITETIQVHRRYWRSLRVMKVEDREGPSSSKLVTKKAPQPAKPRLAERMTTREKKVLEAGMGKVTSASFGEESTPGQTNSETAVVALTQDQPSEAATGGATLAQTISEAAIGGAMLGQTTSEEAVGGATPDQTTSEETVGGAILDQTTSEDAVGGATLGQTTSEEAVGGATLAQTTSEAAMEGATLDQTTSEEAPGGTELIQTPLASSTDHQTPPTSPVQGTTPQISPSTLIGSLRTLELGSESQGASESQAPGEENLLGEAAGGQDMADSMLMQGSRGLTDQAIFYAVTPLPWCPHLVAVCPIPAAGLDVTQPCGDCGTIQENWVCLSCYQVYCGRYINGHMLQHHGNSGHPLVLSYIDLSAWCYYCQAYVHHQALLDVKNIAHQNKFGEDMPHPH

[2] = target: Protein deacetylase HDAC6 (Homo sapiens) (UniProt Q9UBN7); settings: at 10 µM
[3] = target: T2, Protein deacetylase HDAC6 (Homo sapiens) (UniProt Q9UBN7); settings: at 10 µM; remark: listed apart in the source
T2 sequence (whole entry): T1 sequence (Q9UBN7 whole entry)

[4] = target: T1, Protein deacetylase HDAC6; remark: listed apart in the source

Row | Compound | IC50 [1] | inhibition [2] | inhibition [3] | IC50 [4]
1 | FLUPENTIXOL [listing 1 of 2 here] | 1550 nM | – | – | –
2 | FLUPENTIXOL [listing 2 of 2 here] | – | 89.4% | – | –
3 | PHENYLMERCURIC ACETATE | – | 60.2% | – | –
4 | Cc1cc(-c2ccc(/N=N/c3ccc4c(S(=O)(=O)O)cc(S(=O)(=O)O)c(N)c4c3O)c(C)c2)ccc1/N=N/c1ccc2c(S(=O)(=O)O)cc(S(=O)(=O)O)c(N)c2c1O [EVANS BLUE FREE ACID] | – | – | 88.6% | 1950 nM
5 | CCc1ccc(OCc2ccccc2C(=O)Nc2ccc3nc(C)cc(N)c3c2)cc1 | – | – | 78.9% | 3490 nM
6 | COc1ccc2nc(NC(=O)Nc3ccccc3)sc2c1 [FRENTIZOLE] | – | – | 103% | 592 nM
7 | O=C(CC1CC(c2ccc(F)cc2F)=NO1)N1CCOCC1 (racemic) | – | – | 91.7% | 2420 nM
8 | O=C(c1ccc(/C=C/c2n[nH]c3ccccc23)cc1)N1CCNCC1 [KW-2449] | – | – | 84.1% | 2260 nM
9 | Cc1cc(/C=C2\SC(=O)N(c3ccccc3)C2=O)c(C)n1-c1cccnc1 | – | – | 106% | 518 nM
10 | Cc1cccc(/C=C/c2ccccc2)n1 | – | – | 111% | 344 nM
11 | NS(=O)(=O)Oc1ccc2c3c(c(=O)oc2c1)CCCCC3 [IROSUSTAT] | – | – | 87.9% | 860 nM
12 | CN(C)CCCSc1ccccc1NC(=O)/C=C/c1ccccc1 [CINANSERIN HYDROCHLORIDE] | – | – | 106% | 805 nM
13 | CCS(=O)(=O)c1ccc2oc(-c3ccc4ccccc4c3)nc2c1 [EZUTROMID] | – | – | 100% | 528 nM
14 | Nc1nccc(/C=C/c2ccccc2)n1 | – | – | 102% | 775 nM
15 | O=C1c2ccccc2-n2c1nc1ccccc1c2=O [TRYPTANTHRIN] | – | – | 82.7% | 3290 nM
16 | COc1cccc(/C=N/C=N/c2cccc(OC)c2)c1 | – | – | 107% | 49 nM
17 | O=C(Nc1cccc(Cl)c1)c1ccccn1 | – | – | 102% | 333 nM
18 | O=C(Nc1ccc([N+](=O)[O-])cc1O)Nc1ccccc1Br | – | – | 107% | 612 nM
19 | NC(=O)c1sc(-c2ccsc2)cc1N | – | – | 76.9% | 3100 nM
20 | O=c1cc(-c2ccc(O)c(O)c2)oc2cc(O)cc(O)c12 [LUTEOLIN] | – | – | 99.9% | 1440 nM
21 | O=C(CCCCCCC(=O)NO)NO [SUBEROHYDROXAMIC ACID] | – | – | 97.8% | 65.9 nM
22 | Cc1ccc(-c2cn3c4c(sc3n2)CCCC4)cc1 | – | – | 109% | 1130 nM
23 | Cc1nc2ccc(NC(=O)Nc3ccnc4cccnc34)cc2o1 | – | – | 95.3% | 1460 nM
24 | O=c1cc(-c2cccc3c2Sc2ccccc2S3)oc(N2CCOCC2)c1 [KU-55933] | – | – | 79.3% | 4800 nM
25 | Oc1cc(O)cc(/C=C/c2ccc(O)c(O)c2)c1 [PICEATANNOL] | – | – | 105% | 895 nM
